Consider four compounds from ChEMBL document CHEMBL1124633, “Antimalarials. 16. Synthesis of 2-substituted analogues of 8-[(4-amino-1-methylbutyl)amino]-6-methoxy-4-methyl-5-[3- (trifluoromethyl)phenoxy]quinoline as candidate antimalarials” (J Med Chem, 1989).

A short description of data set [1]: Acute toxicity administered intra peritoneally was determined in 85 female rats. Particulars: rat, in vivo, ip.
A short description of data set [2]: Molar primaquine index is ratio of ED50 of Compound by ED50 of primaquine in rhesus monkey. Type of data set: functional.
Data set [3] can be described thus: Acute toxicity administered orally was determined in 74 male rats. Particulars: rat, in vivo, po.
Data set [4] can be described thus: Acute toxicity administered orally was determined in 85 female rats. The conditions noted are these: rat, in vivo, po.
The nature of data set [5]: Acute toxicity administered intra peritoneally was determined in 74 male rats. The conditions noted are these: rat, in vivo, ip.
Data set [6] in a line: Molar primaquine index is ratio of ED50 of Primaquine by ED50 of primaquine in rhesus monkey. Type of data set: functional.
Data set [7] can be described thus: Acute toxicity administered orally was determined in male rats. Type of data set: organism-based. Particulars: rat, in vivo, po.
The nature of data set [8]: Acute toxicity administered orally was determined in female rats. Particulars: rat, in vivo, po. Type of data set: organism-based.
Data set [9] is described as follows: Acute toxicity administered intraperitoneally was determined in female rats. Type of data set: organism-based. Particulars: rat, in vivo, ip.
A short description of data set [10]: Acute toxicity administered intraperitoneally was determined in male rats. Type of data set: organism-based. Particulars: rat, in vivo, ip.

With `COc1cc(NC(C)CCCN)c2nccc(C)c2c1Oc1cccc(C(F)(F)F)c1` (configuration not stated), the LD50 came to 54 mg/kg in [1], 256 mg/kg in data set [3], 401 mg/kg in data set [4] and 86 mg/kg in data set [5]. The Ratio in data set [2] came to 6.8.
Turning to `COc1cc(NC(C)CCCN)c2nc(OC)cc(C)c2c1` (configuration not stated), the Ratio in data set [2] is 6.8.
For the compound `COc1cc(NC(C)CCCN)c2ncccc2c1` (configuration not stated) [PRIMAQUINE], the Ratio in data set [6] is on record as 1.
On to `COc1cc(C)c2c(Oc3cccc(C(F)(F)F)c3)c(OC)cc(NC(C)CCCN)c2n1` (configuration not stated) [TAFENOQUINE], for which the LD50 in [7] stood at 429 mg/kg; in [8], 416 mg/kg; in data set [9], 71 mg/kg; in data set [10] it was 102 mg/kg. Further, in data set [2], the Ratio is recorded as 12.8.

As a reminder, the LD50 is the dose at which mortality reaches 50%.
